PubChem BioAssay (NCI)
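GI50 = concentration required for 50% inhibition of growth. TGI marks complete inhibition of growth.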

How the values were obtained:
Assay in all cases: growth of human tumour cells (NCI), 384-well format
[1] = tested on: A498 renal
[2] = tested on: NCI-H322M lung
[3] = tested on: ACHN renal
[4] = tested on: UACC-257 melanoma
[5] = tested on: T-47D breast
[6] = tested on: MDA-MB-231 breast
[7] = tested on: HL-60(TB) leukemia
[8] = tested on: RPMI-8226 leukemia
[9] = tested on: SN12C renal
[10] = tested on: SR leukemia
[11] = tested on: OVCAR-3 ovarian
[12] = tested on: 786-0 renal
[13] = tested on: UO-31 renal
[14] = tested on: EKVX NSCLC
[15] = tested on: HCC-2998 colon
[16] = tested on: UACC-62 melanoma
[17] = tested on: SNB-19 CNS
[18] = tested on: HOP-92 NSCLC
[19] = tested on: K-562 leukemia
[20] = tested on: MDA-MB-435 melanoma
[21] = tested on: NCI-H226 lung
[22] = tested on: OVCAR-8 ovarian
[23] = tested on: HS 578T breast
[24] = tested on: OVCAR-5 ovarian
[25] = tested on: U251 glioblastoma
[26] = tested on: SW-620 colon
[27] = tested on: SK-MEL-5 melanoma
[28] = tested on: MOLT-4 leukemia
[29] = tested on: NCI-H522 lung
[30] = tested on: NCI-H23 lung
[31] = tested on: CAKI-1 renal
[32] = tested on: MDA-MB-468 breast
[33] = tested on: TK-10 renal
[34] = tested on: SF-268 CNS
[35] = tested on: SK-MEL-28 melanoma
[36] = tested on: OVCAR-4 ovarian
[37] = tested on: KM12 colon
[38] = tested on: NCI-H460 NSCLC
[39] = tested on: COLO 205 colon
[40] = tested on: SK-OV-3 ovarian
[41] = tested on: HOP-62 NSCLC
[42] = tested on: PC-3 prostate
[43] = tested on: HT29 colon
[44] = tested on: MCF7 breast
[45] = tested on: SF-539 CNS
[46] = tested on: A549 NSCLC
[47] = tested on: MALME-3M melanoma
[48] = tested on: SF-295 CNS
[49] = tested on: NCI/ADR-RES ovarian
[50] = tested on: LOX IMVI melanoma
[51] = tested on: DU-145 prostate
[52] = tested on: BT-549 breast
[53] = tested on: M14 melanoma
[54] = tested on: RXF 393 renal
[55] = tested on: CCRF-CEM leukemia
[56] = tested on: SNB-75 CNS
[57] = tested on: HCT-15 colon
[58] = tested on: IGROV1 ovarian

Structure (SMILES): CC1(COc2ccc3c(c2)ncn3-c2ccc3cccc(N4CCC(N)CC4)c3n2)COC1
- GI50 [1]: 1670 nM
- TGI [1]: 3040 nM
- GI50 [2]: 1950 nM
- TGI [2]: 3490 nM
- GI50 [3]: 1150 nM
- TGI [3]: 2470 nM
- GI50 [4]: 2710 nM
- TGI [4]: 4190 nM
- GI50 [5]: 2070 nM
- TGI [5]: 3560 nM
- GI50 [6]: 1060 nM
- TGI [6]: 2500 nM
- GI50 [7]: 275 nM
- TGI [7]: 901 nM
- GI50 [8]: 242 nM
- TGI [8]: 708 nM
- GI50 [9]: 250 nM
- TGI [9]: 1580 nM
- GI50 [10]: 185 nM
- TGI [10]: 430 nM
- GI50 [11]: 1560 nM
- TGI [11]: 3010 nM
- GI50 [12]: 808 nM
- TGI [12]: 2070 nM
- GI50 [13]: 1550 nM
- TGI [13]: 2950 nM
- GI50 [14]: 1760 nM
- TGI [14]: 3410 nM
- GI50 [15]: 1390 nM
- TGI [15]: 2730 nM
- GI50 [16]: 1460 nM
- TGI [16]: 2770 nM
- GI50 [17]: 1980 nM
- TGI [17]: 4520 nM
- GI50 [18]: 1180 nM
- TGI [18]: 2470 nM
- GI50 [19]: 967 nM
- TGI [19]: 2150 nM
- GI50 [20]: 1280 nM
- TGI [20]: 2550 nM
- GI50 [21]: 1560 nM
- TGI [21]: 2990 nM
- GI50 [22]: 1180 nM
- TGI [22]: 2430 nM
- GI50 [23]: 573 nM
- TGI [23]: 1730 nM
- GI50 [24]: 1730 nM
- TGI [24]: 3410 nM
- GI50 [25]: 1340 nM
- TGI [25]: 2700 nM
- GI50 [26]: 1100 nM
- TGI [26]: 2420 nM
- GI50 [27]: 1370 nM
- TGI [27]: 2660 nM
- GI50 [28]: 362 nM
- TGI [28]: 1170 nM
- GI50 [29]: 441 nM
- TGI [29]: 1630 nM
- GI50 [30]: 622 nM
- TGI [30]: 1880 nM
- GI50 [31]: 1000 nM
- TGI [31]: 2230 nM
- GI50 [32]: 532 nM
- TGI [32]: 1600 nM
- GI50 [33]: 1710 nM
- TGI [33]: 3680 nM
- GI50 [34]: 1160 nM
- TGI [34]: 2440 nM
- GI50 [35]: 1680 nM
- TGI [35]: 3050 nM
- GI50 [36]: 2180 nM
- TGI [36]: 3640 nM
- GI50 [37]: 39.5 nM
- TGI [37]: 1450 nM
- GI50 [38]: 479 nM
- TGI [38]: 1600 nM
- GI50 [39]: 482 nM
- TGI [39]: 1630 nM
- GI50 [40]: 1610 nM
- TGI [40]: 3000 nM
- GI50 [41]: 556 nM
- TGI [41]: 1760 nM
- GI50 [42]: 1690 nM
- TGI [42]: 3160 nM
- GI50 [43]: 1630 nM
- TGI [43]: 3050 nM
- GI50 [44]: 1350 nM
- TGI [44]: 2650 nM
- GI50 [45]: 501 nM
- TGI [45]: 1930 nM
- GI50 [46]: 1280 nM
- TGI [46]: 2630 nM
- GI50 [47]: 1850 nM
- TGI [47]: 3250 nM
- GI50 [48]: 1580 nM
- TGI [48]: 2940 nM
- GI50 [49]: 1710 nM
- TGI [49]: 3390 nM
- GI50 [50]: 636 nM
- TGI [50]: 1890 nM
- GI50 [51]: 1090 nM
- TGI [51]: 2350 nM
- GI50 [52]: 370 nM
- TGI [52]: 1410 nM
- GI50 [53]: 1500 nM
- TGI [53]: 2830 nM
- GI50 [54]: 1560 nM
- TGI [54]: 2910 nM
- GI50 [55]: 365 nM
- TGI [55]: 1400 nM
- GI50 [56]: 1530 nM
- TGI [56]: 2870 nM
- GI50 [57]: 1450 nM
- TGI [57]: 2990 nM
- GI50 [58]: 1670 nM
- TGI [58]: 3080 nM
